Laboratory results from patent publication US8663632B1, “Compositions and methods for selectively targeting cancer cells using a thiaminase compound” (University of Kentucky Research Foundation, priority 2008, dated 2014).

Tested on: GRP78 and UPR pathway proteins in breast cancer cell lines
Experiment: Immunoblot analysis of energy and UPR pathway proteins
Format: cell-based, human
Conditions: tunicamycin 5 μg/ml, thapsigargin 1 μM; all four breast cancer cell lines
Description: Cells were treated with thiaminase or anti-cancer agent for the indicated times and washed with ice-cold PBS. Cells were lysed with a triple-detergent lysis buffer (50 mM Tris pH8.0, 150 mM NaCl, 1% NP-40, 0.5% DOC, 0.1% SDS, 0.02% sodium azide and protease inhibitors). Equal amounts of protein were loaded into each well and separated by 10% SDS-PAGE gel, followed by transfer onto nitrocellulose membranes. The membranes were blocked, incubated with the indicated primary antibodies at 4° C. overnight, and the appropriate horseradish peroxidase-conjugated secondary antibody was added for 1 hour at room temperature. Immunoblots were developed by use of the enhanced chemiluminescence (ECL) detection system (Pierce, Rockford, Ill.) according to the manufacturer's protocol and autoradiography. All of the primary antibodies were purchased from Cell Signaling Technologies (Danvers, MA). The secondary antibodies were purchased from Sigma (St. Louis, Mo.). An anti-β-actin antibody was used as a control for protein loading.

Compound: tunicamycin
- GRP78 induction: marked induction

Compound: C/C=C(/C)C(=O)O[C@H]1C(C)=C2[C@H]([C@@H]1OC(=O)CCCCCCC)[C@@](C)(OC(C)=O)C[C@H](OC(=O)CCC)[C@@]1(O)[C@H]2OC(=O)[C@@]1(C)O [thapsigargin]
- GRP78 induction: marked induction
